Reference: article PMC7366380, “Discovery of a Potent and Selective Covalent Inhibitor and Activity-Based Probe for the Deubiquitylating Enzyme UCHL1, with Antifibrotic Activity” (Journal of the American Chemical Society, 2020)
“And” between values parts separate entries of the source, which are not always exact repeats. Equal entries are not always repeated.

Assays:
Assay in all cases: In-cell proteome-wide competitive ABPP, HEK293: other DUBs and proteins
[1] = target: DUBs and other proteins in HEK293 cells (Homo sapiens, UniProt O15372); settings: for Log2 reporter intensity values, EIF3H: TMT replicates; for Log2 reporter intensity values: EIF3H: competition with ABP 2, DMSO substract (FC); for Log2 reporter intensity values: EIF3H / Log2 reporter intensity values: replicates A-C; for Log2 t-test Difference / Log2 reporter intensity values: EIF3H
[2] = target: T1, DUBs and other proteins in HEK293 cells (Homo sapiens, UniProt P45974); settings: replicates A-C; for Log2 reporter intensity values: USP5: competition with ABP 2, DMSO substract (FC); for Log2 reporter intensity values: USP5, DMSO subtracted
T1 sequence (P45974 1-858): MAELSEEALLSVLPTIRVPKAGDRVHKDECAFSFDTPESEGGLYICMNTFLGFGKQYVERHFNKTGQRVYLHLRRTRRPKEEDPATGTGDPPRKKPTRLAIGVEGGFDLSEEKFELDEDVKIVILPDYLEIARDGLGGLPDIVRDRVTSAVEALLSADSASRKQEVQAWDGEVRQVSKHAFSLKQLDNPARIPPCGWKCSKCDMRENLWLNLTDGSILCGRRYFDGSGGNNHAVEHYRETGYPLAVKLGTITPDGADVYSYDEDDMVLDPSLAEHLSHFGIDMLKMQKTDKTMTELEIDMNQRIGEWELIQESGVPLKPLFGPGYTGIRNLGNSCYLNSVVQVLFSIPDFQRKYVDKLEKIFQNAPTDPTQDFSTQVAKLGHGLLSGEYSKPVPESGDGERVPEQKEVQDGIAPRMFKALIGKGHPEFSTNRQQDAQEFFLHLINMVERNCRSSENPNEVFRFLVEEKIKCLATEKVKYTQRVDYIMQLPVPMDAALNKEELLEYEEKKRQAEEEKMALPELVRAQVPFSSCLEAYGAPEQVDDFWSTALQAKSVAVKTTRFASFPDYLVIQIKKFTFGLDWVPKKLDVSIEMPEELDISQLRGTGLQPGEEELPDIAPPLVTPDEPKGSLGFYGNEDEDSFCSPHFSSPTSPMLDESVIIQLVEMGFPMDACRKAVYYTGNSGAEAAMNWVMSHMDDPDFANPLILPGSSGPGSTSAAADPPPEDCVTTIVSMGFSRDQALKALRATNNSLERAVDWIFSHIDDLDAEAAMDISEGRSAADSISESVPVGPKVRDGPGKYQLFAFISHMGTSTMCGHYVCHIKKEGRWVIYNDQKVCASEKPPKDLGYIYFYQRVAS

[3] = target: T2, DUBs and other proteins in HEK293 cells (Homo sapiens, UniProt Q86UV5); settings: for Log2 reporter intensity values: USP48: competition with ABP 2, DMSO substract (FC), replicates A-B; for Log2 reporter intensity values: USP48, DMSO subtracted
T2 sequence (Q86UV5 1-1035): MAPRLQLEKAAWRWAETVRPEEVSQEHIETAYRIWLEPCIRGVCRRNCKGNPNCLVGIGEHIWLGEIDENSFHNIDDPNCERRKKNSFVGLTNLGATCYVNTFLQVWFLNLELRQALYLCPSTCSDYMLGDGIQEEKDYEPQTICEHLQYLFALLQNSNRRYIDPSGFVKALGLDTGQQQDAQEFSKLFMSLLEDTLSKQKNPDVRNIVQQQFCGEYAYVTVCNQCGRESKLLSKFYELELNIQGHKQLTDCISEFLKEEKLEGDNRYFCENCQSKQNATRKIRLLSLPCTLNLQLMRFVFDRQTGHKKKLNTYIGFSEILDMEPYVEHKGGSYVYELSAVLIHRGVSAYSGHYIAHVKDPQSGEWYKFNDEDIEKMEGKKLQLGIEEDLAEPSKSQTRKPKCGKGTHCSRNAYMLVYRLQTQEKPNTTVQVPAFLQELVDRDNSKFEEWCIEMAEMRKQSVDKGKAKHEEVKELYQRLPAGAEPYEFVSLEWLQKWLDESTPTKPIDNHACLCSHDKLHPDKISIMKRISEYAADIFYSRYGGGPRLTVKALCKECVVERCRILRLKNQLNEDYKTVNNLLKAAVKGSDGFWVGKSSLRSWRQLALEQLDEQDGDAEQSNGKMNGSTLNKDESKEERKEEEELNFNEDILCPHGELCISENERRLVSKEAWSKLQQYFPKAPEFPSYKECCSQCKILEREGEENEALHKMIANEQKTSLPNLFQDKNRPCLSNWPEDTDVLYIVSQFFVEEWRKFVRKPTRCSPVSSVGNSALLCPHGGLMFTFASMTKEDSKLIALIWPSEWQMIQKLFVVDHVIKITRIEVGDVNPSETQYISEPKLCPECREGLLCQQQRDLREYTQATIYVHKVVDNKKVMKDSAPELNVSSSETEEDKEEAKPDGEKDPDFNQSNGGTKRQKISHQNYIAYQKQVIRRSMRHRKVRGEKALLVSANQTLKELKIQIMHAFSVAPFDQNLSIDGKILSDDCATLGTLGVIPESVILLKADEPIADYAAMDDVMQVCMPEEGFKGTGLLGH

[4] = target: DUBs and other proteins in HEK293 cells (Homo sapiens, UniProt Q92905); settings: for Log2 reporter intensity values, COPS5: TMT replicates; for Log2 reporter intensity values: COPS5: competition with ABP 2, DMSO substract (FC); for Log2 reporter intensity values: COPS5 / Log2 reporter intensity values: replicates A-C; for Log2 t-test Difference / Log2 reporter intensity values: COPS5
[5] = target: DUBs and other proteins in HEK293 cells (Homo sapiens, UniProt Q93008); settings: replicates A-C; for Log2 reporter intensity values: USP9X;USP9Y: competition with ABP 2, DMSO substract (FC); for Log2 reporter intensity values: USP9X;USP9Y, DMSO subtracted
[6] = 1 μM 1 (60 min) + 20 nM ABP 2 (10 min), All values
[7] = 1 μM 1 (60 min) + 20 nM ABP 2 (10 min), DMSO subtracted
[8] = 4 μM 1 (60 min) + 20 nM ABP 2 (10 min), All values
[9] = 4 μM 1 (60 min) + 20 nM ABP 2 (10 min), DMSO subtracted

DUBs and other proteins in HEK293 cells (Homo sapiens, UniProt Q92905), sequence (Q92905 whole entry): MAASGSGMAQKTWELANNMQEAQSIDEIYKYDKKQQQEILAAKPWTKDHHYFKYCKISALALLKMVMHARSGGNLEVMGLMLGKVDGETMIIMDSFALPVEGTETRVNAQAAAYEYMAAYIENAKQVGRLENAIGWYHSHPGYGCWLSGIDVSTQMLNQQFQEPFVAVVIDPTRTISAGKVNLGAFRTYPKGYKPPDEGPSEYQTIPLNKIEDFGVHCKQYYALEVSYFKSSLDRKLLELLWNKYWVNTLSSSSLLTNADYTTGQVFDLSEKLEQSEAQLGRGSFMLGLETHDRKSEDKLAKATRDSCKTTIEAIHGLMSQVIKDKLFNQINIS
DUBs and other proteins in HEK293 cells (Homo sapiens, UniProt Q93008), sequence (Q93008 whole entry): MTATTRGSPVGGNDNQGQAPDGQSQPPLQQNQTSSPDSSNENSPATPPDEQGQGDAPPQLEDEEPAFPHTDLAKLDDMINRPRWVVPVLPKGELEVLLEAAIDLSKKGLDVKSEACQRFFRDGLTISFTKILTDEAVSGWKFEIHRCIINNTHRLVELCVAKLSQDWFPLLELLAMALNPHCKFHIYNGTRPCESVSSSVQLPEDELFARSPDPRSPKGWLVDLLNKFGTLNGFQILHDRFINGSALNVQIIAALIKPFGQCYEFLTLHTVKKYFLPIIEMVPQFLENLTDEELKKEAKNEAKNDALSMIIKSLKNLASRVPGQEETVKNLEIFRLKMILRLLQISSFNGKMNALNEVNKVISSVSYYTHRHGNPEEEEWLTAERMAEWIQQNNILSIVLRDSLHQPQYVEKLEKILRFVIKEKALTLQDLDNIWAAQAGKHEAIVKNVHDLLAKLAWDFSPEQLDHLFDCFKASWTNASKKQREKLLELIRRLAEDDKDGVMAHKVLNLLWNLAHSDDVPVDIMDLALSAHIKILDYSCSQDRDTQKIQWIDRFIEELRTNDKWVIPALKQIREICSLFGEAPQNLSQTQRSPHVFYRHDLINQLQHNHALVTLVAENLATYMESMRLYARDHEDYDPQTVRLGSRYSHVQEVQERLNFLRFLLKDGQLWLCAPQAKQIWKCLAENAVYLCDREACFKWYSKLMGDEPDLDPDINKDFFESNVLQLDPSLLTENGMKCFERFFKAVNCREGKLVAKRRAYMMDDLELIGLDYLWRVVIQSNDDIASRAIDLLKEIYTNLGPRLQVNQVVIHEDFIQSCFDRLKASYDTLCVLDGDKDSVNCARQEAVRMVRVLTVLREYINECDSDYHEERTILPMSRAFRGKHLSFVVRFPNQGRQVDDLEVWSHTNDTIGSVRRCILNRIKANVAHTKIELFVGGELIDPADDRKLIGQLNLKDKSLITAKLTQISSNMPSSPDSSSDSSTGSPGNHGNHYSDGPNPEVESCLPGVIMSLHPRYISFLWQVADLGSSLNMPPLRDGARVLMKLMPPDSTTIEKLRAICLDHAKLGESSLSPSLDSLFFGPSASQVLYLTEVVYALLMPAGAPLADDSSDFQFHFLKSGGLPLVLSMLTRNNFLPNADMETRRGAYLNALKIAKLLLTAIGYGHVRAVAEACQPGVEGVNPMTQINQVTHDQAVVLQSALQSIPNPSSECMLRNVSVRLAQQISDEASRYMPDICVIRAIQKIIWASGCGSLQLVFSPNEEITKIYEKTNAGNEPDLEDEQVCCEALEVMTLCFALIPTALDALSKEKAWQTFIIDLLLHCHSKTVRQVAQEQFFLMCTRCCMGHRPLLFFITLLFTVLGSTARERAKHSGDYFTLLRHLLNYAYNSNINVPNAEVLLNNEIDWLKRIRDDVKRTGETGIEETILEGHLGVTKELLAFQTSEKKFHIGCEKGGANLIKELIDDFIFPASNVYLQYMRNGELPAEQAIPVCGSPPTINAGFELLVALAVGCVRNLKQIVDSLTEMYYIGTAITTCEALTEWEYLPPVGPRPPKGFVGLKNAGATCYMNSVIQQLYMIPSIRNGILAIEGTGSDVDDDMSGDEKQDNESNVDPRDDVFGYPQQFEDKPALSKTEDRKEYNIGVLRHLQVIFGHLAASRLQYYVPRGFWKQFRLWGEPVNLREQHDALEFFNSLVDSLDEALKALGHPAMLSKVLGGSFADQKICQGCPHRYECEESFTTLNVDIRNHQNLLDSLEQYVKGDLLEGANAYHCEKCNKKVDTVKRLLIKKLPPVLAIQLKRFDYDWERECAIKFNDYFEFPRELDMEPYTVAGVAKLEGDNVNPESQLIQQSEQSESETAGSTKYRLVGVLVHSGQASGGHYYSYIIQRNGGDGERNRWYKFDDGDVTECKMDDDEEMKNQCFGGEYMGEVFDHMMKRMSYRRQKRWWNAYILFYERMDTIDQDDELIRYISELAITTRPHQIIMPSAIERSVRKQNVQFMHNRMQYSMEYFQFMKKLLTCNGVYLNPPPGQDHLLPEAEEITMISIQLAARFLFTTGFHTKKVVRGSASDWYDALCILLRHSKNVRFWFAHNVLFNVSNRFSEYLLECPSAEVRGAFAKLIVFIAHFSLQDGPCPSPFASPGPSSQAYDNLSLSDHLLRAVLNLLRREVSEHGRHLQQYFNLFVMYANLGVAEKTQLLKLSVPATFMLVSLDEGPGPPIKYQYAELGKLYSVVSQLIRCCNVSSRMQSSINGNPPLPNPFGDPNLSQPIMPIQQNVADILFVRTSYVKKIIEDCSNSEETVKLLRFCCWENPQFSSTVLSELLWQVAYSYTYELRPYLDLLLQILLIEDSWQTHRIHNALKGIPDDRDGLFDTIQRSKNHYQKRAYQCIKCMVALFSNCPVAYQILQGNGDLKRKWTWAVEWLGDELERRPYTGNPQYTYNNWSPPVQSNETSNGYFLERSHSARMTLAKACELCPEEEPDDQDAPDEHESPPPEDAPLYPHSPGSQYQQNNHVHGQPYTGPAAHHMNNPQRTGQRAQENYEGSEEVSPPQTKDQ
DUBs and other proteins in HEK293 cells (Homo sapiens, UniProt O15372), sequence (O15372 whole entry): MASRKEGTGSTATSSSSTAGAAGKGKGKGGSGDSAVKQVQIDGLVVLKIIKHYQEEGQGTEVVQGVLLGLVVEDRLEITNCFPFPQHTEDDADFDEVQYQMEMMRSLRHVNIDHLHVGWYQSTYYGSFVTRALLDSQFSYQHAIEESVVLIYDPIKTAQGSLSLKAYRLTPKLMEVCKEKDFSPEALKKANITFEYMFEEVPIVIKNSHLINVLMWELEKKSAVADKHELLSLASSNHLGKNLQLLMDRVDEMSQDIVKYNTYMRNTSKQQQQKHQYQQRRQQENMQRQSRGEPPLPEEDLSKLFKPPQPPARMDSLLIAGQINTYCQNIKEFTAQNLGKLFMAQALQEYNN

Compound: N#CN1CCC[C@H]1C(=O)N1CCc2c(-c3c[nH]c4ncccc34)cccc21 [Compound 1]
- Log2 reporter intensity values, EIF3H [1, 6]: -0.09256 and -0.05547 and -0.03085
- Log2 reporter intensity values, EIF3H [1, 7]: -0.1222 and -0.08506 and -0.06044
- Log2 reporter intensity values, EIF3H [1, 8]: -0.07138 and -0.1308 and -0.1362
- Log2 reporter intensity values, EIF3H [1, 9]: -0.101 and -0.1603 and -0.1658
- Log2 reporter intensity values: EIF3H ([1]; 1 at 1 μM): 0.9188 and 0.9427 and 0.959
- Log2 reporter intensity values: EIF3H ([1]; 1 at 4 μM): 0.9324 and 0.8948 and 0.8914
- Log2 t-test Difference ([1]; 1 - 1 μM): -0.08557
- Log2 t-test Difference ([1]; 1 - 4 μM): -0.1387
- Log2 reporter intensity values ([1]; 1_1 μM, DMSO subtracted): -0.08133 and -0.0574 and -0.04117
- Log2 reporter intensity values ([1]; 1_4 μM, DMSO subtracted): -0.06774 and -0.1053 and -0.1087
- Log2 reporter intensity values ([1]; 1 at 1 μM, DMSO subtracted): -0.1222 and -0.08506 and -0.06044
- Log2 reporter intensity values ([1]; 1 at 4 μM, DMSO subtracted): -0.101 and -0.1603 and -0.1658
- Log2 reporter intensity values: USP5 ([2]; 1 at 1 μM): 0.9731 and 0.9825 and 0.9558
- Log2 reporter intensity values: USP5 ([2]; 1 at 4 μM): 0.9723 and 0.9393 and 0.9714
- Log2 reporter intensity values ([2]; 1_1 μM): -0.02722 and -0.01785 and -0.04454
- Log2 reporter intensity values ([2]; 1_4 μM): -0.02801 and -0.06107 and -0.02897
- Log2 reporter intensity values ([2]; 1 at 1 μM): -0.03934 and -0.0255 and -0.06525
- Log2 reporter intensity values ([2]; 1 at 4 μM): -0.04051 and -0.09041 and -0.04193
- Log2 reporter intensity values: USP48 ([3]; 1 at 1 μM): 1.114 and 0.9292
- Log2 reporter intensity values: USP48 ([3]; 1 at 4 μM): 1.018 and 0.949
- Log2 reporter intensity values ([3]; 1_1 μM, replicates A-B (C NaN)): 0.113 and -0.07208
- Log2 reporter intensity values ([3]; 1_4 μM, replicates A-B (C NaN)): 0.01672 and -0.0523
- Log2 reporter intensity values ([3]; 1 at 1 μM, replicates A-C): 0.1561 and -0.1059
- Log2 reporter intensity values ([3]; 1 at 4 μM, replicates A-C): 0.02574 and -0.07554
- Log2 reporter intensity values, COPS5 [4, 6]: -0.01371 and -0.03292 and 0.07504
- Log2 reporter intensity values, COPS5 [4, 7]: 0.04441 and 0.02519 and 0.1332
- Log2 reporter intensity values, COPS5 [4, 8]: 0.02465 and -0.01344 and 0.1212
- Log2 reporter intensity values, COPS5 [4, 9]: 0.08277 and 0.04467 and 0.1793
- Log2 reporter intensity values: COPS5 ([4]; 1 at 1 μM): 1.031 and 1.018 and 1.097
- Log2 reporter intensity values: COPS5 ([4]; 1 at 4 μM): 1.059 and 1.031 and 1.132
- Log2 t-test Difference ([4]; 1 - 1 μM): -0.09474
- Log2 t-test Difference ([4]; 1 - 4 μM): -0.06006
- Log2 reporter intensity values ([4]; 1_1 μM, DMSO subtracted): 0.03118 and 0.01753 and 0.09661
- Log2 reporter intensity values ([4]; 1_4 μM, DMSO subtracted): 0.05896 and 0.03137 and 0.1323
- Log2 reporter intensity values ([4]; 1 at 1 μM, DMSO subtracted): 0.04441 and 0.02519 and 0.1332
- Log2 reporter intensity values ([4]; 1 at 4 μM, DMSO subtracted): 0.08277 and 0.04467 and 0.1793
- Log2 reporter intensity values: USP9X;USP9Y ([5]; 1 at 1 μM): 1.022 (2×) and 0.9739
- Log2 reporter intensity values: USP9X;USP9Y ([5]; 1 at 4 μM): 0.949 and 1.006 and 0.9815
- Log2 reporter intensity values ([5]; 1_1 μM): 0.0219 and 0.02206 and -0.02613
- Log2 reporter intensity values ([5]; 1_4 μM): -0.05104 and 0.005497 and -0.01849
- Log2 reporter intensity values ([5]; 1 at 1 μM): 0.0313 and 0.03153 and -0.03815
- Log2 reporter intensity values ([5]; 1 at 4 μM): -0.07554 and 0.007953 and -0.02689
